Assay results from patent publication US8367645B2, “Compositions and methods for treating hyperproliferative diseases” (priority 2008, dated 2013).
Marks after values point to notes of the source that are not given here.

Experiments:
[1] = tested on: transplanted human hepatoma (Hep G2 cells); experiment: Volume of transplanted human hepatoma (Hep G2) in hairless mice; type: in vivo
Description: The procedures for performing this test were as follows. Hep G2 cells were prepared at 25*10^6 cells/ml and 0.2 ml of the cell suspension (5*10^6 cells) was injected in an exposed mouse mammary fat pad. When tumors achieved the required size (0.5 cm^3), animals would be treated with 50 μl of B10, dehydrated alcohol or 10% glucose solution once daily for 6 days. During 12 days after the last injection, tumor volume will be assessed by measuring tumor dimensions (long (L) and short (S)) and estimated it as V=0.52*L*S^2. 12 days after the last injection, mice would be sacrificed and tumors would be dissected, weighed and stored in a formaline solution for further evaluation.).

[2] = tested on: B16 (mice melanoma cells); settings: metformin 5 mM alone or in combination
Description: Each of the cell samples were then tested in a flow cytometer. The testing methodology and equipment used are set forth as follows. Cells were harvested and washed twice with phosphate buffered saline, (PBS) and fixed in 70% cold ethanol at 4° C. overnight. Before analysis, cells were washed twice with PBS, containing 1% bovine serum albumin (BSA), then resuspended with 400 μl PBS and treated with 100 μg/ml RNase A (Roche Diagnostics) and 50 μg/ml propidium iodide (PI) (Sigma). After incubation for 30 min at 37° C., the cells were subjected to DNA content analysis. propidium iodide, (PI) fluorescence was analyzed with a FACS calibur flowcytometer, (Becton Dickinson). Data from at least 10,000 cells were analyzed with software.
In Example 5, Metformin 5 mM; Metformin 5 mM+aspirin 2 mM; and Metformin 5 mM+aspirin 2 mM+serotonin creatinine sulfate complex 0.001 mM were tested to determine the effect on cell cycle on B16 (mice melanoma cells) during the G1, S and G2 cell phases. The procedure for testing using the flow cytometer was carried out as set forth in Example 1 above.

CCO [Dehydration ethanol]
rate of elimination of hepatoma volume [1]: 52.7%
Volume After Treatment ([1]; Hep G2 tumor, 50 μl once daily for 6 days, 10% G.S. 444 ± 199): 89 ± 120**
Volume Before Treatment ([1]; Hep G2 tumor, before treatment): 188 ± 119
Volume Changes ([1]; Hep G2 tumor, ↓ = decrease, 10% G.S. ↑158%): ↓52.7%

CN(C)C(=N)N=C(N)N [Metformin]
S ([2]; control 12.8): 4.6
G2 ([2]; control 23.1): 23.6
G1 ([2]; control 64): 71.8
